Biological target: T1, Axl (Homo sapiens, UniProt P30530)
T1 sequence (P30530 26-894): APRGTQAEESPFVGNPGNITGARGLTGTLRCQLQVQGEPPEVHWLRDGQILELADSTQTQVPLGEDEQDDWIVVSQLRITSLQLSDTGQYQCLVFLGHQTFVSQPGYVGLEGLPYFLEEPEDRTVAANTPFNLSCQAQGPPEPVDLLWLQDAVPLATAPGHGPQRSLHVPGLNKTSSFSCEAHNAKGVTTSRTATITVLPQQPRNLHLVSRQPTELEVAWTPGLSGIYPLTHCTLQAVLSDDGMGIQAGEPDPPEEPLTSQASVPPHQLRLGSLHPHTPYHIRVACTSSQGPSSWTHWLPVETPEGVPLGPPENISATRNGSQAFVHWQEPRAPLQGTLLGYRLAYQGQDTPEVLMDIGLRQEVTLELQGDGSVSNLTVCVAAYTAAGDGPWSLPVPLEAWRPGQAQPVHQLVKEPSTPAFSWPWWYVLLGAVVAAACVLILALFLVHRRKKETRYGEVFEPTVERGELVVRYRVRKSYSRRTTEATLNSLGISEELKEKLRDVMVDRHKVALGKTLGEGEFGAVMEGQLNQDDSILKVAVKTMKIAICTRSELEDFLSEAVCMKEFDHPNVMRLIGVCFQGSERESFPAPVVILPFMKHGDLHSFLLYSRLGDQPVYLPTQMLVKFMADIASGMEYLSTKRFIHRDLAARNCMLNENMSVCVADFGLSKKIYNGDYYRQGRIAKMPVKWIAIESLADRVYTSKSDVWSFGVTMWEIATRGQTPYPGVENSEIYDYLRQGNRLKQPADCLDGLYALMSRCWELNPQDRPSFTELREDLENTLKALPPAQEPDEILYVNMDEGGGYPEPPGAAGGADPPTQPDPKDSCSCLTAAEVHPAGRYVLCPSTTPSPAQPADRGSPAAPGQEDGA
Test: Axl NanoBRET intracellular kinase assay (intracellular binding, K-5 tracer displacement)
Parameters: host or cells: HEK-293
Settings: HEK-293 cells transfected with Axl-NanoLuc, 0.35 μM K-5 NanoBRET tracer; read-out: Cell Binding AXL
Procedure: Measuring Intracellular Binding of Axl Inhibitors
Axl NanoBRET™ intracellular kinase assay (Promega, N2540) was performed according to manufacturer's recommendation. In brief, HEK-293 cells are transiently transfected with Ax1-NanoLuc fusion vector (Promega, NV1071), utilizing Fugene HD transfection reagent (Promega, E2311) a day before experiment following manufacturer's recommendation.
The day of the assay, the cells were collected and resuspended in Opti-MEM media (ThermoFisher, 31985070) at 2e5 cells/mL concentration. Testing compounds were serial diluted and dispensed into a white 384 well polystyrene plate at 200 nL in 100% DMSO. 40 μL of resuspended cells is then added per well for a final condition of 8K cells/well with 0.5% DMSO. After one-hour compound pre-incubation at 37° C. and 5% CO2, cells were further incubated with 0.35 μM K-5 NanoBRET tracer for two-hours at 37° C. and 5% CO2. […] of 3× substrate plus Inhibitor solution was prepared according to kits manual and added to the cells followed by a 30 second pulse centrifugation spin. The plate was then immediately read utilizing an Envision (Perkin Elmer) plate reader. The BRET signal is measured by taking the ratio of the emissions reading at 610 nm and 450 nm. Compound binding is based on the decrease BRET signal caused by the displacement of the K-5 tracer. […] ICso value of compounds was determined by 4-parameter non-linear regression fitting of percent activity in GraphPad Prism software.

## Cn1cnnc1-c1ccc(-c2n[nH]c3ncc(-c4ccc5c(c4)CC[C@@H](N4C6COCC4C6)CC5)cc23)cc1 [Example 169, 6-[(7S)-2-{3-[4-(4-Methyl-4H-1,2,4-triazol-3-yl)phenyl]-1H-pyrazolo[3,4-b]pyridin-5-yl}-6,7,8,9-tetrahydro-5H-benzo[7]annulen-7-yl]-3-oxa-6-azabicyclo[3.1.1]heptane]
  IC50: < 100 nM

## c1ccc(-c2ccc(-c3n[nH]c4ncc(-c5ccc6c(c5)CC[C@@H](N5C7COCC5C7)CC6)cc34)cc2)nc1 [Example 154, 6-[(7S)-2-{3-[4-(Pyridin-2-yl)phenyl]-2H-pyrazolo[3,4-b]pyridin-5-yl}-6,7,8,9-tetrahydro-5H-benzo[7]annulen-7-yl]-3-oxa-6-azabicyclo[3.1.1]heptane]
  IC50: < 100 nM

## C[C@@H]1CCCN1[C@@]1(C)CCc2ccc(-c3cnc4[nH]cc(-c5ccc(-c6ccccn6)cc5)c4c3)cc2CC1 [Example 156, 2-(4-{5-[(7S)-7-Methyl-7-[(2R)-2-methylpyrrolidin-1-yl]-6,7,8,9-tetrahydro-5H-benzo[7]annulen-2-yl]-1H-pyrrolo[2,3-b]pyridin-3-yl}phenyl)pyridine]
  IC50: < 100 nM

## Cn1ccnc1-c1ccc(-c2n[nH]c3ncc(-c4ccc5c(c4)CC[C@@H](N4C6COCC4C6)CC5)cc23)cc1 [Example 111, 6-[(7S)-2-{3-[4-(1-Methyl-1H-imidazol-2-yl)phenyl]-1H-pyrazolo[3,4-b]pyridin-5-yl}-6,7,8,9-tetrahydro-5H-benzo[7]annulen-7-yl]-3-oxa-6-azabicyclo[3.1.1]heptane]
  IC50: < 100 nM

## c1ccc(-c2ccc(-c3c[nH]c4ncc(-c5ccc6c(c5)CC[C@@H](N5C7COCC5C7)CC6)cc34)cc2)nc1 [Example 155, 6-[(7S)-2-{3-[4-(Pyridin-2-yl)phenyl]-1H-pyrrolo[2,3-b]pyridin-5-yl}-6,7,8,9-tetrahydro-5H-benzo[7]annulen-7-yl]-3-oxa-6-azabicyclo[3.1.1]heptane]
  IC50: < 100 nM

## Cc1nccnc1-c1ccc(-c2n[nH]c3ncc(-c4ccc5c(c4)CC[C@@H](N4C6COCC4C6)CC5)cc23)cc1 [Example 175, 6-[(7S)-2-{3-[4-(3-Methylpyrazin-2-yl)phenyl]-1H-pyrazolo[3,4-b]pyridin-5-yl}-6,7,8,9-tetrahydro-5H-benzo[7]annulen-7-yl]-3-oxa-6-azabicyclo[3.1.1]heptane]
  IC50: < 100 nM

## Cc1ccnnc1-c1ccc(-c2n[nH]c3ncc(-c4ccc5c(c4)CC[C@@H](N4C6COCC4C6)CC5)cc23)cc1 [Example 176, 6-[(7S)-2-{3-[4-(4-Methylpyridazin-3-yl)phenyl]-1H-pyrazolo[3,4-b]pyridin-5-yl}-6,7,8,9-tetrahydro-5H-benzo[7]annulen-7-yl]-3-oxa-6-azabicyclo[3.1.1]heptane]
  IC50: < 100 nM

## CN(C)C(=O)c1ccccc1-c1ccc(-c2c[nH]c3ncc(-c4ccc5c(c4)CC[C@@H](N4C6COCC4C6)CC5)cc23)cn1 [Example 170, N,N-Dimethyl-2-(5-{5-[(7S)-7-{3-oxa-6-azabicyclo[3.1.1]heptan-6-yl}-6,7,8,9-tetrahydro-5H-benzo[7]annulen-2-yl]-1H-pyrrolo[2,3-b]pyridin-3-yl}pyridin-2-yl)benzamide]
  IC50: < 100 nM

## Cc1cc(-c2n[nH]c3ncc(-c4ccc5c(c4)CC[C@@H](N4C6COCC4C6)CC5)cc23)ccc1-c1ccccn1 [Example 159, 6-[(7S)-2-{3-[3-Methyl-4-(pyridin-2-yl)phenyl]-2H-pyrazolo[3,4-b]pyridin-5-yl}-6,7,8,9-tetrahydro-5H-benzo[7]annulen-7-yl]-3-oxa-6-azabicyclo[3.1.1]heptane]
  IC50: 100 to 1000 nM

## CN(C)C(=O)c1ccccc1-c1ccc(-c2n[nH]c3ncc(-c4ccc5c(c4)CC[C@@H](N4C6COCC4C6)CC5)cc23)cc1 [Example 12, N,N-Dimethyl-4′-{5-[(7S)-7-{3-oxa-6-azabicyclo[3.1.1]heptan-6-yl}-6,7,8,9-tetrahydro-5H-benzo[7]annulen-2-yl]-2H-pyrazolo[3,4-b]pyridin-3-yl}-[1,1′-biphenyl]-2-carboxamide]
  IC50: < 100 nM

## CC(C)(O)c1cccnc1-c1ccc(-c2n[nH]c3ncc(-c4ccc5c(c4)CC[C@@H](N4C6COCC4C6)CC5)cc23)cc1 [Example 10, 2-[2-(4-{5-[(7S)-7-{3-Oxa-6-azabicyclo[3.1.1]heptan-6-yl}-6,7,8,9-tetrahydro-5H-benzo[7]annulen-2-yl]-1H-pyrazolo[3,4-b]pyridin-3-yl}phenyl)pyridin-3-yl]propan-2-ol]
  IC50: < 100 nM

## Cn1ncnc1-c1ccc(-c2n[nH]c3ncc(-c4ccc5c(c4)CC[C@@H](N4C6COCC4C6)CC5)cc23)cc1 [Example 110, 6-[(7S)-2-{3-[4-(1-Methyl-1H-1,2,4-triazol-5-yl)phenyl]-2H-pyrazolo[3,4-b]pyridin-5-yl}-6,7,8,9-tetrahydro-5H-benzo[7]annulen-7-yl]-3-oxa-6-azabicyclo[3.1.1]heptane]
  IC50: < 100 nM

## Cn1nccc1-c1ccc(-c2n[nH]c3ncc(-c4ccc5c(c4)CC[C@@H](N4C6COCC4C6)CC5)cc23)cc1 [Example 109, 6-[(7S)-2-{3-[4-(1-Methyl-1H-pyrazol-5-yl)phenyl]-1H-pyrazolo[3,4-b]pyridin-5-yl}-6,7,8,9-tetrahydro-5H-benzo[7]annulen-7-yl]-3-oxa-6-azabicyclo[3.1.1]heptane]
  IC50: < 100 nM

## Cn1nncc1-c1ccc(-c2n[nH]c3ncc(-c4ccc5c(c4)CC[C@@H](N4C6COCC4C6)CC5)cc23)cc1 [Example 13, 6-[(7S)-2-{3-[4-(1-Methyl-1H-1,2,3-triazol-5-yl)phenyl]-1H-pyrazolo[3,4-b]pyridin-5-yl}-6,7,8,9-tetrahydro-5H-benzo[7]annulen-7-yl]-3-oxa-6-azabicyclo[3.1.1]heptane]
  IC50: < 100 nM

## CN(C)C(=O)c1cccc(-c2ccc(-c3n[nH]c4ncc(-c5ccc6c(c5)CC[C@@H](N5C7COCC5C7)CC6)cc34)cc2)n1 [Example 94, N,N-Dimethyl-6-(4-{5-[(7S)-7-{3-oxa-6-azabicyclo[3.1.1]heptan-6-yl}-6,7,8,9-tetrahydro-5H-benzo[7]annulen-2-yl]-2H-pyrazolo[3,4-b]pyridin-3-yl}phenyl)pyridine-2-carboxamide]
  IC50: < 100 nM

## CN(C)C(=O)c1cccnc1-c1ccc(-c2c[nH]c3ncc(-c4ccc5c(c4)CC[C@@H](N4C6COCC4C6)CC5)cc23)cc1 [Example 165, N,N-Dimethyl-2-(4-{5-[(7S)-7-{3-oxa-6-azabicyclo[3.1.1]heptan-6-yl}-6,7,8,9-tetrahydro-5H-benzo[7]annulen-2-yl]-1H-pyrrolo[2,3-b]pyridin-3-yl}phenyl)pyridine-3-carboxamide]
  IC50: < 100 nM

## Cc1cncnc1-c1ccc(-c2n[nH]c3ncc(-c4ccc5c(c4)CC[C@@H](N4C6COCC4C6)CC5)cc23)cc1 [Example 174, 6-[(7S)-2-{3-[4-(5-Methylpyrimidin-4-yl)phenyl]-1H-pyrazolo[3,4-b]pyridin-5-yl}-6,7,8,9-tetrahydro-5H-benzo[7]annulen-7-yl]-3-oxa-6-azabicyclo[3.1.1]heptane]
  IC50: < 100 nM

## Cc1cccnc1-c1ccc(-c2c[nH]c3ncc(-c4ccc5c(c4)CC[C@@H](N4CCCC4)CC5)cc23)cc1 [Example 173, 3-Methyl-2-(4-{5-[(7S)-7-(pyrrolidin-1-yl)-6,7,8,9-tetrahydro-5H-benzo[7]annulen-2-yl]-1H-pyrrolo[2,3-b]pyridin-3-yl}phenyl)pyridine]
  IC50: < 100 nM
